Tests used:
[1] = target: Recombinant human SYK (amino acids 342-635), GST-SYK kinase fusion protein (Homo sapiens (Human), UniProt P43405); experiment: SYK kinase inhibition test (Kinase Glo luminescence); type: biochemical; conditions: read-out: SYK inhibition IC50-value (chapter 5.1)
Description: The catalytic activity of the GST-SYK kinase fusion protein was determined using the Kinase Glo® Luminescence Kinase test (Promega; V6712). In this homogeneous test the amount of ATP remaining after the kinase reaction is quantified by a luciferin-luciferase reaction using luminescence. The luminescence signal obtained correlates with the amount of ATP still present and thus correlates inversely with the activity of the kinase.
The test compounds were dissolved in 100% DMSO at a concentration of 10 mM and diluted in DMSO to a concentration of 1 mM. Serial Dilution is done in 100% DMSO. All further dilutions of the substances were carried out with test buffer (25 mM HEPES pH7.5; 25 mM MgCl2; 5 mM MnCl2; 50 mM KCl; 0.2% HSA; 0.01% CHAPS; 100 μM Na3VO4; 0.5 mM DTT). Dilution steps and concentration range were adapted according to need. 7 μl aliquots of these dilutions were transferred into a 384-well Optiplate (Perkin Elmer, #6007290). GST-SYK was diluted to 12 nM in the test buffer and 5 μl of this dilution were used in the kinase test (final concentration of SYK=4 nM in a total volume of 15 μl). After 15 minutes incubation at room temperature 3 μl of a mixture of 750 nM ATP and 100 μg/ml poly (L-Glutamic acid L-Tyrosine 4:1), Fluka #81357) in test buffer were added to each well and the incubation was continued for a further 60 minutes at room temperature.
Positive controls are the reaction mixtures that contain no test substance; negative controls (blanks) are reaction mixtures that contain no kinase.
After 60 minutes, 10 μl Kinase-Glo® solution (Promega, Cat. # V6712) (heated to room temperature) were added to each well and incubation was continued for a further 15 minutes. The plates were read in Envision Luminescence Reader (Perkin-Elmer).
The output file of the reader is a csv file that contains the well number and measured relative light units (RLU). For data evaluation and calculation, the measurement of the negative control was set as 100% ctrl and the measurement of the positive control was set as 0% ctrl. Based on this values the % value for the measurement of each substance concentration was calculated using an Assay Explorer software (Accelrys). Normally, the % ctrl values calculated are between 0% and 100% values but may also occur outside these limits in individual cases based on variability or compound characteristics. The IC50-values were calculated from the % ctrl values using Assay Explorer software. Calculation: [y=(a−d)/(1+(x/c)^b)+d] a=low value, d=high value; x=conc M; c=IC50 M; b=hill; y=% ctrl.
Satisfying SYK inhibitory capacities are represented by an IC50(SYK)-Value measured by this assay of <10 nMol.

[2] = test system: human hepatocytes; experiment: Human hepatocyte stability test; type: in vitro ADME; conditions: human hepatocyte suspension, percent of hepatic blood flow
Description: A more comprehensive way to measure the metabolic stability of a compound of the instant invention than microsomal stability (section 5.6) is the human hepatocyte stability test as described below. Herein the metabolic degradation for the compound in question is performed in a human hepatocyte suspension.
Human hepatocytes (typically cryopreserved) are incubated in an appropriate buffer system (e.g. Dulbecco's modified eagle medium plus 3.5 μg glucagon/500 mL, 2.5 mg insulin/500 mL and 3.75 mg/500 mL hydrocortison) containing 5% species serum.
Following a (typically) 30 min preincubation in an incubator (37° C., 10% CO2) 5 μl of the solution of the compound to be tested ([…]; from 2 mM in DMSO stock solution diluted 1:25 with medium) are added into 395 μl hepatocyte suspension (cell density is in the range of 0.25-5 Mio cells/mL, typically 1 Mio cells/mL; the final concentration of the compound in question is […], the final DMSO concentration is 0.05%).
The cells are incubated for six hours (incubator, orbital shaker) and samples (25 μl) are taken at 0, 0.5, 1, 2, 4 and 6 hours. Samples are transferred into acetonitrile and pelleted by centrifugation (5 min). The supernatant is transferred to a new 96-deepwell plate, evaporated under nitrogen and resuspended.
The decline of the compound to be tested is analyzed by HPLC-MS/MS.
CLint is calculated as follows CL_INTRINSIC=Dose/AUC=(C0/CD)/(AUD+clast/k)×1000/60.
C0: initial concentration in the incubation [μM], CD: cell density of vital cells [10^6 cells/mL], AUD: area under the data [μM×h], clast: concentration of last data point [μM], k: slope of the regression line for the compound in question decline [h−1].
The calculated in vitro hepatic intrinsic clearance can be scaled up to the intrinsic in vivo hepatic Clearance and used to predict hepatic in vivo blood clearance (CL) by the use of a liver model (well stirred model). CL_INTRINSIC_INVIVO [ml/min/kg]=(CL_INTRINSIC [μL/min/10^6cells]×hepatocellularity[10^6 cells/g liver]×liver factor [g/kg bodyweight])/1000 CL [ml/min/kg]=CL_INTRINSIC_INVIVO [ml/min/kg]×hepatic blood flow [ml/min/kg]/(CL_INTRINSIC_INVIVO [ml/min/kg]+hepatic blood flow [ml/min/kg]) Qh[%]=CL [ml/min/kg]/hepatic blood flow [ml/min/kg]) […]
Hepatocellularity, human: 120×10^6 cells/g liver
Liver factor, human: 25.7 g/kg bodyweight
Blood flow, human: 21 ml/(min×kg)
A satisfying human hepatocyte stability for a compound in question measured by this assay is represented by a Qh<20% (whereby the stability is better, the lower the Qh-value is).

For `Cc1c2c(O[C@H](C)[C@H]3CNC(=O)C3)cc(-c3cnn(CC(C)C)c3)cc2nn1C` [Example 19, (R)-4-{(R)-1-[6-(1-Isobutyl-1H-pyrazol-4-yl)-2,3-dimethyl-2H-indazol-4-yloxy]-ethyl}-pyrrolidin-2-one], the IC50 [1] was 1.8 nM and the “stability in human hepatocytes (chapter 5.7) HEPhu” value (shortened to “stability in human hepatocytes”) [2] was 7 % Qh.
`C[C@@H](Oc1cc(-c2cnn(CCC(F)(F)F)c2)cc2nn(C)c(F)c12)[C@H]1CNC(=O)C1` [Example 12, (R)-4-((R)-1-{3-Fluoro-2-methyl-6-[1-(3,3,3-trifluoro-propyl)-1H-pyrazol-4-yl]-2H-indazol-4-yloxy}-ethyl)-pyrrolidin-2-one] was tested, and the IC50 [1] was 2.9 nM and the “stability in human hepatocytes” value [2] was <4 % Qh.
In the case of `C[C@@H](Oc1cc(-c2cnn(C3CC(C)(C)OC3(C)C)c2)cc2nn(C)c(F)c12)[C@H]1CNC(=O)C1` (stereo partly drawn) [Example 14, (R)-4-((R)-1-{3-Fluoro-2-methyl-6-[1-(2,2,5,5-tetramethyl-tetrahydro-furan-3-yl)-1H-pyrazol-4-yl]-2H-indazol-4-yloxy}-ethyl)-pyrrolidin-2-one], the IC50 [1] is reported as 3.2 nM and the “stability in human hepatocytes” value [2] is reported as 12 % Qh.
In the case of `C[C@@H](Oc1cc(-c2cnn(CC3CC3)c2)cc2nn(C)c(F)c12)[C@H]1CNC(=O)C1` [Example 6, (R)-4-{(R)-1-[6-(1-Cycloprop-ylmethyl-1H-pyrazol-4-yl)-3-fluoro-2-methyl-2H-indazol-4-yloxy]-ethyl}-pyrrolidin-2-one], the IC50 [1] is reported as 2.6 nM and the “stability in human hepatocytes” value [2] is reported as 6 % Qh.
In the case of `Cc1c2c(O[C@H](C)[C@H]3CNC(=O)C3)cc(-c3cnn(C(C)(C)C)c3)cc2nn1C` [Example 13, (R)-4-{(R)-1-[6-(1-tert-Butyl-1H-pyrazol-4-yl)-2,3-dimethyl-2H-indazol-4-yloxy]-ethyl}-pyrrolidin-2-one], the IC50 [1] is reported as 0.9 nM and the “stability in human hepatocytes” value [2] is reported as 3 % Qh.
In the case of `Cc1c2c(O[C@H](C)[C@H]3CNC(=O)C3)cc(-c3cnn(C4CCC(F)(F)C4)c3)cc2nn1C` (stereo partly drawn) [Example 22, (R)-4-((R)-1-{6-[1-(3,3-Difluoro-cyclopentyl)-1H-pyrazol-4-yl]-2,3-dimethyl-2H-indazol-4-yloxy}-ethyl)-pyrrolidin-2-one], the IC50 [1] is reported as 1.2 nM and the “stability in human hepatocytes” value [2] is reported as 3 % Qh.
With `C[C@@H](Oc1cc(-c2cnn(C3CCC3)c2)cc2nn(C)c(F)c12)[C@H]1CNC(=O)C1` [Example 1, (R)-4-{(R)-1-[6-(1-Cyclobutyl-1H-pyrazol-4-yl)-3-fluoro-2-methyl-2H-indazol-4-yloxy]-ethyl}-pyrrolidin-2-one] the IC50 [1] was 1 nM and the “stability in human hepatocytes” value [2] was 10 % Qh.
